Results on 15 compounds are retold here after ChEMBL document CHEMBL1128981, “A comparison of steroidal and non-steroidal inhibitors of human steroid 5-reductase: New tricyclic aryl acid inhibitors of the type-1 isozyme” (Bioorg Med Chem Lett, 1996).

One may read the inhibition as the change of the read-out against control, counted positive when it falls. In general, IC50 refers to the concentration at which inhibition is half-maximal.

The target of assay [1] is T1, 3-oxo-5-alpha-steroid 4-dehydrogenase 1 (Homo sapiens, UniProt P18405).
T1 sequence (P18405 whole entry): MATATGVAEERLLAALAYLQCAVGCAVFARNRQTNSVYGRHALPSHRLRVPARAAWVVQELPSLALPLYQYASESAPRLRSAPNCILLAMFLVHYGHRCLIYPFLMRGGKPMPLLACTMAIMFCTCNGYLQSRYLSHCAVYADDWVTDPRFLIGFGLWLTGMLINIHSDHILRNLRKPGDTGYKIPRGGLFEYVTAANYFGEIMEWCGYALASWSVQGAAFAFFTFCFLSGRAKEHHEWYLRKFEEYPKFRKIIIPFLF
Briefly: Inhibition of type-1 human steroid 5-alpha-reductase. Conditions: read-out: Ki app; call rule not given here.

Assay [2] has as its target T2, 3-oxo-5-alpha-steroid 4-dehydrogenase 2 (Homo sapiens, UniProt P31213).
T2 sequence (P31213 whole entry): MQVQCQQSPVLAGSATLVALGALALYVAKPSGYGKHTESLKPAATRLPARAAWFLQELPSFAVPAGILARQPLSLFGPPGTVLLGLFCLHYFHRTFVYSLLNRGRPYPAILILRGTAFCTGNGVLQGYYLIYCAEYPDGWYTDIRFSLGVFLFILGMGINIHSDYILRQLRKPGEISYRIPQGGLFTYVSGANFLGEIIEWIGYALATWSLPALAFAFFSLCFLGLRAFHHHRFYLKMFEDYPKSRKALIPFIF
Briefly: Inhibition of type-2 human steroid 5-alpha-reductase. Conditions: read-out: Ki app.

Assay [3] has as its target T3, 3-oxo-5-alpha-steroid 4-dehydrogenase 2 (Homo sapiens) (UniProt P31213).
T3 sequence (whole entry): T2 sequence (P31213 whole entry)
The note with it: 10 uM.
Description: Inhibitory activity against type-2 human steroid 5-alpha-reductase at a concentration of 10 uM

Assay [4] addresses T2, 3-oxo-5-alpha-steroid 4-dehydrogenase 2. Briefly: Inhibitory activity against type-2 human steroid 5-alpha-reductase.
Assay [5] has as its target T1, 3-oxo-5-alpha-steroid 4-dehydrogenase 1. Briefly: Inhibitory activity against type-1 human steroid 5-alpha-reductase.
For assay [6], the target named is T2, 3-oxo-5-alpha-steroid 4-dehydrogenase 2. Briefly: (§1) Inhibitory activity against type-2 human steroid 5-alpha-reductase at a concentration of 1 uM; No inhibition.
For assay [7] the target is unchanged. Described as §1. The source holds these as a separate data set.
In assay [8] the target is T3, 3-oxo-5-alpha-steroid 4-dehydrogenase 2 (Homo sapiens). Briefly: Inhibitory activity against type-2 human steroid 5-alpha-reductase at a concentration of 2.5 uM.
Assay [9] has the same target. Conditions: 20 uM.
Description: Inhibitory activity against type-2 human steroid 5-alpha-reductase at a concentration of 20 uM
For assay [10], the target named is T4, 3-oxo-5-alpha-steroid 4-dehydrogenase 1 (Homo sapiens) (UniProt P18405).
T4 sequence (whole entry): T1 sequence (P18405 whole entry)
Briefly: Inhibitory activity against type-1 human steroid 5-alpha-reductase at a concentration of 2.5 uM.

In assay [11] the target is T2, 3-oxo-5-alpha-steroid 4-dehydrogenase 2. Briefly: Inhibitory activity against type-2 human steroid 5-alpha-reductase at a concentration of 1 uM: No inhibition.

`CCN(CC)C(=O)[C@H]1CC[C@H]2[C@@H]3CC[C@H]4N(C)C(=O)CC[C@]4(C)[C@H]3CC[C@]12C`: the Ki was found to be 3 nM in assay [1] and 2 nM in [2].

`C[C@]12CCC([PH](=O)O)=CC1=CCc1cc(Cl)ccc12`: the Ki in assay [1] was 1900 nM; in [2], 1600 nM.

Regarding `O=C(O)c1ccc2c(c1)CCc1ccccc1-2`, the inhibition in assay [3] stood at 20%. Further, the Ki in [1] was found to be 315 nM; in [2], 10000 nM.

Take `O=C(O)c1ccc2c(c1)CCc1cc(Br)ccc1-2`: the Ki in assay [1] was found to be 26 nM; in assay [2] it was 10000 nM.

Consider `CC(C)(C)NC(=O)[C@H]1CC[C@H]2[C@@H]3CC[C@H]4NC(=O)C=C[C@]4(C)[C@H]3CC[C@]12C` [FINASTERIDE], for which the IC50 in [4] stood at 4.2 nM; in assay [5], 500 nM.

On to `C[C@]12CCC(C(=O)O)=CC1=CCc1cc(Cl)ccc12`, for which the Ki came out at 1200 nM in [1] and 260 nM in assay [2].

As to `CN1C(=O)CC[C@]2(C)c3ccc(Cl)cc3CC[C@@H]12`, the Ki app result in [6] and in [7] was “Not Active” throughout.

In the case of `CC(C)(C)NC(=O)[C@H]1CCC2C3CC=C4C=C([PH](=O)O)CC[C@]4(C)C3CC[C@@]21C` (some centres undefined), the Ki in assay [1] turned out to be 3200 nM; in assay [2], 1.3 nM.

On to `O=C(O)c1ccc2c(c1)CCc1cc(Cl)ccc1-2`, for which the inhibition in assay [8] worked out at 50%. In addition, the Ki in assay [1] amounted to 320 nM; in assay [2], 2500 nM.

As for `CC(C)N(C(=O)[C@H]1CCC2C3CC[C@H]4C=C([N+](=O)[O-])CC[C@]4(C)C3CC[C@@]21C)C(C)C` (some centres undefined), the Ki worked out at 4200 nM in assay [1] and 30 nM in assay [2].

Turning to `CC1=C2NCc3cc(Cl)ccc3[C@@]2(C)CCC1=O`, the Ki is 920 nM in assay [1] and 20000 nM in assay [2]. In assay [9], this compound had an inhibition of 49%.

As for `O=C(O)c1ccc2c(c1)Cc1ccccc1-2`, the Ki in assay [1] is above 2500 nM; in [2], 10000 nM. This compound returned an inhibition in assay [10] of 30%.

Turning to `CC(C)(C)NC(=O)[C@H]1CC[C@H]2[C@@H]3CCc4cc(C(=O)O)ccc4[C@H]3CC[C@]12C`, the Ki in assay [1] was found to be 1600 nM; in [2] it was 0.4 nM.

`COc1cccc2c1CC[C@H]1C=C([N+](=O)[O-])CC[C@]21C`: the Ki app result in assay [11] is listed as “Not Active”. In assay [1], the Ki is above 2500 nM. The compound further gave an inhibition in assay [10] of 10%.

For the compound `CC(C)CC(=O)[C@H]1CCC2C3CNC4=CC(=O)CC[C@]4(C)C3CC[C@@]21C` (some centres undefined), the Ki in assay [2] was 0.08 nM.
